{"source": "patent US10851082B2", "about": "“Substituted aromatic n-heterocyclic compounds as inhibitors of mitogen-activated protein kinase interacting kinase 1 (MNK1) and 2 (MNK2)” (Northwestern University, priority 2015, dated 2020)", "key": {"Mnk1": {"biological_target": "Mnk1 (Homo sapiens (Human), UniProt Q9BUB5)", "sequence (Q9BUB5 whole entry)": "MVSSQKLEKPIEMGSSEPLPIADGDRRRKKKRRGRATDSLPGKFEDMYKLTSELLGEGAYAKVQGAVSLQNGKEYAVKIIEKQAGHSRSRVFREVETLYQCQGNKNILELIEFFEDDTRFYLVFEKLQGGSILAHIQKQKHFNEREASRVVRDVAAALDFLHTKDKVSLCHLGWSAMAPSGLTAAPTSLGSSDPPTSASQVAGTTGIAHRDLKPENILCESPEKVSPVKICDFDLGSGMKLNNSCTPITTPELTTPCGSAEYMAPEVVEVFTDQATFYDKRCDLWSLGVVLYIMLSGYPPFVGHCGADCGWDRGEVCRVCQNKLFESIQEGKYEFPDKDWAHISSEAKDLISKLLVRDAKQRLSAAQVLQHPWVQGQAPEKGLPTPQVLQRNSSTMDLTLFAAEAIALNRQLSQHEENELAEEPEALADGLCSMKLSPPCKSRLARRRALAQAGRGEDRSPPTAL", "assay": "Mnk1 kinase inhibition, ADP-Glo ADP monitoring assay", "format": "biochemical"}, "Mnk2": {"biological_target": "Mnk2 (Homo sapiens (Human), UniProt Q9HBH9)", "sequence (Q9HBH9 whole entry)": "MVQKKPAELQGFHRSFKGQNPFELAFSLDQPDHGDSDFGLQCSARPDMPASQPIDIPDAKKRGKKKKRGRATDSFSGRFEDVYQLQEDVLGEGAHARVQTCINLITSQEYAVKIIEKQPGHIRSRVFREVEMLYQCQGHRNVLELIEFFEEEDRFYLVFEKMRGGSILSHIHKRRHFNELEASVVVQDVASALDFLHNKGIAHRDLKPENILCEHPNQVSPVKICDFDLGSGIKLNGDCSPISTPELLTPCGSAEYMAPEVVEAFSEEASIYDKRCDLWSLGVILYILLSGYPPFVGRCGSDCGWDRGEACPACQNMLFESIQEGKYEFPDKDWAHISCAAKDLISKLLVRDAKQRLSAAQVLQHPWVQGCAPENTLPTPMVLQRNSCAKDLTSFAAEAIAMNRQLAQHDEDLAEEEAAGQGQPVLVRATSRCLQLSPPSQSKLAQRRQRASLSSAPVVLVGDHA", "assay": "Mnk2 kinase inhibition, ADP-Glo ADP monitoring assay", "format": "biochemical"}, "[1]": {"conditions": "ADP-Glo kinase assay, read-out: Mnk2 IC50"}, "[2]": {"conditions": "read-out: Mnk1 inhibition IC50 (+,++,+++)"}, "[3]": {"conditions": "ADP-Glo kinase assay, read-out: Mnk2 inhibition IC50 (+,++,+++)"}, "[4]": {"conditions": "unit inferred, read-out: Mnk1 IC50"}, "[5]": {"conditions": "ADP-Glo kinase assay, unit inferred, read-out: Mnk2 IC50"}}, "note": "pIC50: −log10 of the molar value. Like-named read-outs stand apart in the source and are kept apart here."}
{"smiles": "O=[N+]([O-])c1ccc(NCCNc2ccnc(-n3cnc4ccccc43)n2)nc1", "note": "[NUCC-0176366]", "values": [{"measurement": "pIC50", "setting": "Mnk1; read-out: Mnk1 IC50", "result": 5.07}, {"measurement": "pIC50", "setting": "Mnk2; [1]", "result": 5.60}]}
{"smiles": "c1ccc2c(c1)ncn2-c1ccnc(NC2CCOCC2)n1", "note": "[NUCC-0125595]", "values": [{"measurement": "pIC50", "setting": "Mnk1; read-out: Mnk1 IC50", "result": 6.30}, {"measurement": "pIC50", "setting": "Mnk2; [1]", "result": 7.08}]}
{"smiles": "c1cncc(CCNc2nccc(-n3cnc4ccccc43)n2)c1", "note": "[NUCC-0176340]", "values": [{"measurement": "pIC50", "setting": "Mnk1; read-out: Mnk1 IC50", "result": 6.26}, {"measurement": "pIC50", "setting": "Mnk2; [1]", "result": 7.16}]}
{"smiles": "Fc1ccc2c(ncn2-c2nc(NCCc3ccncc3)ncc2Cl)c1F", "note": "[NUCC-0200800]", "values": [{"measurement": "Mnk1 inhibition IC50 (+,++,+++)", "setting": "Mnk1", "result": "no activity"}, {"measurement": "Mnk2 inhibition IC50 (+,++,+++)", "setting": "Mnk2; ADP-Glo kinase assay", "result": "no activity"}]}
{"smiles": "NC(=O)c1cccc(-c2cnc(OC3CCNC3)nc2-n2cnc3ccccc32)c1", "note": "(stereo not shown) [NUCC-0201901]", "values": [{"measurement": "pIC50", "setting": "Mnk1; [2]", "result": "5.00 to 6.00"}, {"measurement": "pIC50", "setting": "Mnk2; [3]", "result": "> 6.00"}]}
{"smiles": "COC(=O)c1ccc2c(c1)ncn2-c1nc(NCCc2ccncc2)ncc1Cl", "note": "[NUCC-0200799]", "values": [{"measurement": "pIC50", "setting": "Mnk1; [2]", "result": "5.00 to 6.00"}, {"measurement": "pIC50", "setting": "Mnk2; [3]", "result": "> 6.00"}]}
{"smiles": "FC(F)(F)c1ccc(CCNc2ncc(Cl)c(-n3cnc4ccccc43)n2)cc1", "note": "[NUCC-0200784]", "values": [{"measurement": "pIC50", "setting": "Mnk1; [2]", "result": "< 5.00"}, {"measurement": "pIC50", "setting": "Mnk2", "result": "5.00 to 6.00"}]}
{"smiles": "c1ccc2c(c1)ncn2-c1ccnc(NC2COC2)n1", "note": "[NUCC-0176150]", "values": [{"measurement": "pIC50", "setting": "Mnk1; read-out: Mnk1 IC50", "result": 6.38}, {"measurement": "pIC50", "setting": "Mnk2; [1]", "result": 7.05}]}
{"smiles": "O[C@H](c1ccccc1)[C@@H](Nc1ccnc(-n2cnc3ccccc32)n1)c1ccccc1", "note": "[NUCC-0196259]", "values": [{"measurement": "pIC50", "setting": "Mnk1; [4]", "result": 5.25}, {"measurement": "pIC50", "setting": "Mnk2; [5]", "result": 6.49}]}
{"smiles": "N#Cc1cnc(OCc2ccccn2)nc1-n1cnc2ccccc21", "note": "[NUCC-0200902]", "values": [{"measurement": "pIC50", "setting": "Mnk1; [2]", "result": "> 6.00"}, {"measurement": "pIC50", "setting": "Mnk2; [3]", "result": "> 6.00"}]}
{"smiles": "CC(C)(COc1nc(-n2cnc3ccccc32)ncc1Cl)c1ccnc(F)c1", "note": "[NUCC-0201920]", "values": [{"measurement": "pIC50", "setting": "Mnk1; [2]", "result": "> 6.00"}, {"measurement": "pIC50", "setting": "Mnk2; [3]", "result": "> 6.00"}]}
{"smiles": "COc1cccc(-n2cc(-c3ccnc(NCCc4ccncc4)c3)cn2)c1", "note": "[NUCC-0125601]", "values": [{"measurement": "pIC50", "setting": "Mnk1; read-out: Mnk1 IC50", "result": 5.30}, {"measurement": "pIC50", "setting": "Mnk2; [1]", "result": 5.77}]}
{"smiles": "c1ccc2c(c1)c1ccccc1n2-c1ccnc(NCCc2ccncc2)n1", "note": "[NUCC-0176339]", "values": [{"measurement": "pIC50", "setting": "Mnk1; read-out: Mnk1 IC50", "result": 4.96}, {"measurement": "pIC50", "setting": "Mnk2; [1]", "result": 5.00}]}
{"smiles": "NC(=O)c1cccc(-c2cnc(OC3CC(N)C3)nc2-n2cnc3ccccc32)c1", "note": "(stereo not shown) [NUCC-0201899]", "values": [{"measurement": "pIC50", "setting": "Mnk1; [2]", "result": "5.00 to 6.00"}, {"measurement": "pIC50", "setting": "Mnk2; [3]", "result": "> 6.00"}]}
{"smiles": "Cc1nc2ccccc2n1-c1nc(OC2CC(N(C)C)C2)ncc1Cl", "note": "(stereo not shown) [NUCC-0201016, 3-((5-chloro-4-(2-methyl-1H-benzo[d]imidazol-1-yl)pyrimidin-2-yl)oxy)-N,N-dimethylcyclobutanamine]", "values": [{"measurement": "pIC50", "setting": "Mnk1; [2]", "result": "5.00 to 6.00"}, {"measurement": "pIC50", "setting": "Mnk2", "result": "5.00 to 6.00"}]}
{"smiles": "Clc1cnc(OCCC2CCNCC2)nc1-n1cnc2ccccc21", "note": "[NUCC-0201002]", "values": [{"measurement": "pIC50", "setting": "Mnk1; [2]", "result": "> 6.00"}, {"measurement": "pIC50", "setting": "Mnk2; [3]", "result": "> 6.00"}]}
{"smiles": "c1ccc2c(c1)ncn2-c1ccnc(NCCc2ccncc2)c1", "note": "[NUCC-0196262]", "values": [{"measurement": "pIC50", "setting": "Mnk1; [4]", "result": 5.89}, {"measurement": "pIC50", "setting": "Mnk2; [5]", "result": 5.92}]}
{"smiles": "CC1(C)COC(=O)C1Oc1ncc(Cl)c(-n2cnc3ccccc32)n1", "note": "(stereo not shown) [NUCC-0201017]", "values": [{"measurement": "pIC50", "setting": "Mnk1; [2]", "result": "> 6.00"}, {"measurement": "pIC50", "setting": "Mnk2; [3]", "result": "> 6.00"}]}
{"smiles": "O=C1CCCN1CCCNc1nccc(-n2cnc3ccccc32)n1", "note": "[NUCC-0176344]", "values": [{"measurement": "pIC50", "setting": "Mnk1; read-out: Mnk1 IC50", "result": 5.14}, {"measurement": "pIC50", "setting": "Mnk2; [1]", "result": 6.11}]}
{"smiles": "Clc1cnc(NCc2cccnc2)nc1-n1cnc2ccccc21", "note": "[NUCC-0176360]", "values": [{"measurement": "pIC50", "setting": "Mnk1; read-out: Mnk1 IC50", "result": 5.35}, {"measurement": "pIC50", "setting": "Mnk2; [1]", "result": 6.00}]}
{"smiles": "c1cc(CCNc2nccc(-n3cnc4cnccc43)n2)ccn1", "note": "[NUCC-0176143]", "values": [{"measurement": "pIC50", "setting": "Mnk1; read-out: Mnk1 IC50", "result": 5.37}, {"measurement": "pIC50", "setting": "Mnk2; [1]", "result": 5.96}]}
{"smiles": "Clc1cnc(NCCCc2ccncc2)nc1-n1cnc2ccccc21", "note": "[NUCC-0200912]", "values": [{"measurement": "pIC50", "setting": "Mnk1; [2]", "result": "< 5.00"}, {"measurement": "pIC50", "setting": "Mnk2", "result": "5.00 to 6.00"}]}
{"smiles": "N#Cc1cn(-c2nc(OC3CC(N)C3)ncc2Cl)cn1", "note": "(stereo not shown) [NUCC-0201246]", "values": [{"measurement": "pIC50", "setting": "Mnk1; [2]", "result": "5.00 to 6.00"}, {"measurement": "pIC50", "setting": "Mnk2", "result": "5.00 to 6.00"}]}
{"smiles": "O=C1NCCCCC1Nc1nccc(-n2cnc3ccccc32)n1", "note": "(stereo not shown) [NUCC-0176367]", "values": [{"measurement": "pIC50", "setting": "Mnk1; read-out: Mnk1 IC50", "result": 5.59}, {"measurement": "pIC50", "setting": "Mnk2; [1]", "result": 6.30}]}
{"smiles": "N#Cc1cnc(OC2CCCOC2)nc1-n1cnc2ccccc21", "note": "(stereo not shown) [NUCC-0200795]", "values": [{"measurement": "pIC50", "setting": "Mnk1; [2]", "result": "< 5.00"}, {"measurement": "pIC50", "setting": "Mnk2", "result": "5.00 to 6.00"}]}
{"smiles": "FC(F)(F)c1cc(Cl)c2ncn(-c3nc(OCCc4ccccn4)ncc3Cl)c2c1", "note": "[NUCC-0201020]", "values": [{"measurement": "pIC50", "setting": "Mnk1; [2]", "result": "5.00 to 6.00"}, {"measurement": "pIC50", "setting": "Mnk2", "result": "5.00 to 6.00"}]}
